Results reported in US4169944A, “Cholesterol biosynthesis inhibitors” (University Patents, Inc., priority 1977, dated 1979).
“And” between values parts separate entries of the source, which are not always exact repeats. Equal values may be shown once. Read-outs that look alike come from different tables or passages of the source. One block for each molecule: values may come before it.

What was measured:
[1] = target: T1, HMG-CoA reductase (Rattus norvegicus, UniProt P51639); assay: HMG-CoA reductase activity in crude soluble extract of rat liver microsomes; assay type: biochemical; settings: for HMG-CoA reductase activity: 1.98 without inhibitor
T1 construct: from tissue; host or cells: rat liver microsomes, crude soluble extract
T1 sequence (P51639 1-887): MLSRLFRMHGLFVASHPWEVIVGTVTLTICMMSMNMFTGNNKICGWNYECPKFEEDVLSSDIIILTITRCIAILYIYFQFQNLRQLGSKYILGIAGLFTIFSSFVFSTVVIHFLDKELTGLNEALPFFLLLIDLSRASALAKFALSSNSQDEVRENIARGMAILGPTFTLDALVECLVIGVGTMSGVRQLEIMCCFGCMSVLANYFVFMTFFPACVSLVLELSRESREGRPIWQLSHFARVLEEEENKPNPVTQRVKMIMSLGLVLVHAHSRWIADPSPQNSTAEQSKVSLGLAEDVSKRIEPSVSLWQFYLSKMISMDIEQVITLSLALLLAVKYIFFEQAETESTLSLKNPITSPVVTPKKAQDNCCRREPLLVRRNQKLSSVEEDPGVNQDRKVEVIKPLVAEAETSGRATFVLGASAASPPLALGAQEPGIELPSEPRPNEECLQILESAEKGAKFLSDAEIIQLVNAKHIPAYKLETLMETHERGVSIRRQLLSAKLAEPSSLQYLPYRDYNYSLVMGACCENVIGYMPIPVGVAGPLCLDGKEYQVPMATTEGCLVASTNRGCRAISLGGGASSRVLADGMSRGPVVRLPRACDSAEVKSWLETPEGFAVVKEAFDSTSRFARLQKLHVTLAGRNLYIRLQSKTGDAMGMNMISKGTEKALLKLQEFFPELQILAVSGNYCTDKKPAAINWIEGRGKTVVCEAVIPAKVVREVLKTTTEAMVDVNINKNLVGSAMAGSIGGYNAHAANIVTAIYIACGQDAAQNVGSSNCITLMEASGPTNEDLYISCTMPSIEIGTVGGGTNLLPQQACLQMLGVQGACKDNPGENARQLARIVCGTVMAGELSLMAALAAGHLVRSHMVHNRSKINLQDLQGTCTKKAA
Description: Crude soluble extract from rat liver microsomes was prepared as previously described (2). HMG-CoA reductase activity and incubation conditions were conducted as previously described (2,3).
The relative potencies, as HMG-CoA reductase inhibitors, of trifluoro-HMG-CoA, trifluoro-HMG and trifluoro-HMG anhydride were investigated.
The inhibition of HMG-CoA reductase activity was measured in crude soluble extract from rat liver microsomes. Crude soluble extract from rat liver microsomes was prepared as previously described (2). HMG-CoA reductase activity and incubation conditions were conducted as previously described (2,3). The HMG-CoA reductase activity of the crude soluble extract in the absence of inhibitor was considered as 100% and activities measured in the presence of inhibitors were compared to this norm.

[2] = target: T2, rat liver microsomal HMG-CoA reductase (Rattus norvegicus, UniProt P51639); assay: Kinetics of inhibition of rat liver microsomal HMG-CoA reductase; assay type: biochemical
T2 construct: rat liver microsomal HMG-CoA reductase; from tissue; host or cells: rat liver microsomes
T2 sequence (P51639 1-887): T1 sequence (P51639 1-887)
Description: Table III summarizes the results of an experiment in which the kinetics of inhibition of rat liver microsomal HMG-CoA reductase by trifluoro-HMG-CoA were measured.
The velocity of mevalonate formation was first measured in the absence of trifluoro-HMG-CoA, varying the concentration of the substrate [3-^14 C]HMG-CoA. Then the same experiment was conducted in the presence of trifluoro-HMG-CoA (600 μM). The data were analyzed by means of an Eadie-Hofstee plot.

[3] = system: incorporation of [1-^14 C] acetate into cholesterol (nonsaponifiable extract) in intact rat liver cells; assay: Incorporation of [1-^14 C] acetate into cholesterol (nonsaponifiable extract) in intact liver cells; assay type: cell-based
Description: Duplicate samples contained 3.7 ml of hepatocyte suspension and 0.28 ml of saturated KHCO3 (pH […]) which contained varying final concentrations (0, 0.01, 0.10 or 1.0 mM) of trifluoro-HMG-CoA. Preincubation was conducted for 60 minutes. 10 μCi of [1-^14 C] sodium acetate, dissolved in Krebs Ringer bicarbonate buffer, was then added to each sample. Incubation was conducted for 120 minutes in a Dubnoff shaker. Saponification and extraction were conducted as previously described (4).

[4] = Total body weights and liver weights of treated and control rats; assay type: in vivo, rat; settings: 0.2 mg per intraperitoneal injection, 6 days
Description: (§1) Control rats received an injection of the vehicle (KHCO3 buffer) used for trifluoro-HMG-CoAinjection. Liver microsomes were isolated from these animals, and HMG-CoA reductase activity was measured. The control group average HMG-CoA reductase specific activity was 1.25 nmol mevalonate formed/min/mg protein. […] This difference was statistically significant at the p=0.005 level.
(§2) Twelve male rats of identical age were used. Six rats served as the control group; these rats received an intraperitoneal injection of KHCO3 buffer (0.2 ml) once per day (3:00 pm) for six days, except on the final day when additional injections were given at 10:00 pm and 6:00 am the following day. The drug-treated group of six rats received intraperitoneal injections of trifluoro-HMG-CoA (0.2 mg) in KHCO3 buffer (0.2 ml) on the same schedule as described above for the control group. The data were further analyzed by the t statistic between the mean for each group.

[5] = target: T1, HMG-CoA reductase; assay: Liver microsomal HMG-CoA reductase activity in rats treated with trifluoro-HMG-CoA; assay type: in vivo; settings: 0.2 mg per intraperitoneal injection, 6 days
Description: as §1, §2

[6] = target: T1, HMG-CoA reductase; assay: Inhibition of purified HMG-CoA reductase; assay type: biochemical; settings: 1.1 mM, purified enzyme
Description: Hmg-coA reductase was purified from rat liver microsomes as previously described (2). HMG-CoA reductase activity assay and incubation conditions were conducted as previously described (2,3).

[7] = substrate: CC(O)(CC(=O)O)CC(=O)SCCNC(=O)CCNC(=O)[C@H](O)C(C)(C)COP(=O)(O)OP(=O)(O)OC[C@H]1O[C@@H](n2cnc3c(N)ncnc32)[C@H](O)[C@@H]1OP(=O)(O)O; assay: cells, lysate or membranes named; settings: other: absence of trifluoro-HMG-CoA; Eadie-Hofstee plot
[8] = 1 mM, crude soluble extract, relative potencies (Table VI), read-out: Inhibition of HMG-CoA reductase activity

inhibition at 1000 µM [1, 8]: 11%
Molecule: O=C(O)CC(O)(CC(=O)O)C(F)(F)F [Trifluoro-HMG, 3-Hydroxy-3-Trifluoromethylglutaric Acid]

Ki ([2]; rat liver microsomes, substrate HMG-CoA, Eadie-Hofstee plot): 54 µM
Inhibition type ([2]; versus natural substrate HMG-CoA): competitive inhibitor
inhibition at 10 µM ([1]; 0.01 mM, crude soluble extract): 7%
HMG-CoA reductase activity ([1]; 0.01 mM, crude soluble extract): 1.85 nmol mevalonate formed/min/ml
inhibition at 100 µM ([1]; 0.10 mM, crude soluble extract): 35%
HMG-CoA reductase activity ([1]; 0.10 mM, crude soluble extract): 1.29 nmol mevalonate formed/min/ml
inhibition at 1000 µM ([1]; 1.00 mM, crude soluble extract (Table I), read-out: Inhibition): 78%
HMG-CoA reductase activity ([1]; 1.00 mM, crude soluble extract): 0.44 nmol mevalonate formed/min/ml
inhibition at 1000 µM [1, 8]: 78%
Inhibition (in words) ([1]; 0.1 and 1.0 mM, crude soluble extract): significant inhibition
inhibition at 1100 µM [6]: 73%
HMG-CoA reductase specific activity ([6]; 931.9 without inhibitor): 253.5 nmol mevalonate formed/min/mg
Molecule: CC(C)(COP(=O)(O)OP(=O)(O)OC[C@H]1O[C@@H](n2cnc3c(N)ncnc32)[C@H](O)[C@@H]1OP(=O)(O)O)[C@@H](O)C(=O)NCCC(=O)NCCSC(=O)CC(O)(CC(=O)O)C(F)(F)F (stereo partly drawn) [Trifluoro-HMG-CoA, 3-Hydroxy-3-Trifluoromethylglutaryl-Coenzyme A]
inhibition at 10 µM ([3]; Rattus norvegicus, 0.01 mM, preincubation 60 minutes, incubation 120 minutes): 34%
inhibition at 100 µM ([3]; Rattus norvegicus, 0.10 mM, preincubation 60 minutes, incubation 120 minutes): 67%
inhibition at 1000 µM ([3]; Rattus norvegicus, 1.00 mM, preincubation 60 minutes, incubation 120 minutes): 88%
IC50 ([3]; Rattus norvegicus, calculated from the Table IV experiment, intact liver cells, read-out: Concentration for 50% inhibition of cholesterol formation): ~40 µM
Inhibition of cholesterol formation (in words) ([3]; concentrations as low as 0.01 mM): significant inhibition of cholesterol formation
Total body weights and liver weights, treated versus control group [4]: not significantly different
Relative potency versus the free acid [3-hydroxy-3-trifluoromethylglutaric acid] ([1]; 1 mM, crude soluble extract): substantially more potent inhibitor than the free acid
HMG-CoA reductase specific activity, average of treated rats ([5]; average of six rats, control average 1.25, p=0.005): 0.63 nmol mevalonate formed/min/mg protein
HMG-CoA reductase specific activity, individual treated rats ([5]; individual rat): 0.42 nmol mevalonate formed/min/mg protein and 0.59 nmol mevalonate formed/min/mg protein and 0.83 nmol mevalonate formed/min/mg protein and 0.58 nmol mevalonate formed/min/mg protein and 0.95 nmol mevalonate formed/min/mg protein and 0.40 nmol mevalonate formed/min/mg protein

inhibition at 1000 µM [1, 8]: 27%
Molecule: O=C1CC(O)(C(F)(F)F)CC(=O)O1 [Trifluoro-HMG-anhydride, 3-Hydroxy-3-Trifluoromethylglutaric Anhydride]

B1: rat liver microsomal HMG-CoA reductase (Rattus norvegicus) (protein)
chain: T1 sequence (P51639 1-887)
Km [7]: 34.5 µM
